Laboratory results taken from article PMC5228208 (MedChemComm, 2016).

Key:
HIV RT RNaseH = assay type: binding, HIV-1; conditions: natural product
HIV = conditions: natural products; reported previously, ref [10a]; cited from earlier work

Compound	HIV RT RNaseH Assays ThermoFluor ΔTm (HIV RT RNaseH)	Cell-Based Assays Antiviral EC50 (HIV)
CC(C)c1ccc(O)c(=O)c(O)c1 [β-thujaplicinol]	2.34 °C	n.p. (‘n.p.’ indicates no protective effects (<35% cell viability throughout assay))
manicol	–	n.p. (‘n.p.’ indicates no protective effects (<35% cell viability throughout assay))
